Test results published in patent US8138159B2, “Composition for inhibiting function of human Flt3” (Takara Bio Inc., priority 2003, dated 2012).
Marks after values point to notes of the source that are not given here.

How the values were obtained:
Format in all cases: cell-based, human
Flt3 mRNA = Flt3 mRNA interference by synthesized siRNA, real-time RT-PCR (Example 1); settings: for inhibition percentage (%) of the relative mRNA expression level (Flt3 mRNA/GAPDH mRNA): siRNA 200 pmol, Oligofectamin, after 24 hours, vs cells transfected without siRNA
Protocol: Each kind of cell selected from HL-60 cells [Flt3 WT (wild-type) low expressing cells; ATCC CCL-240], EoL-1 cells [Flt3 WT (wild-type) highly expressing cells; ECACC 94042252] and MV4-11 cells [Flt3/ITD highly expressing cells; ATCC CRL-9591] was cultured at 37° C. in an RPMI 1640 medium (manufactured by TAKARA BIO INC.) supplemented with 10% by volume fetal bovine serum (FBS) in the presence of 5% by volume CO2.
Then, the cells (2×10^5 cells/nil) were pre-cultured for 24 hours in a 6-well plate, then recovered, and suspended so as to give a density of 1.5×10^5 cells/ml in Opti-MEM (trade name, manufactured by Invitrogen), and the synthesized siRNA was added to the resulting suspension so as to give a final concentration of 200 pmol. Transfection was carried out using Oligofectamin (trade name, manufactured by Invitrogen) in an amount of 4 μl/reaction, according to an Invitrogen's protocol attached to Oligofectamin (trade name). As a control, the cells were subjected to similar operations without adding the siRNA. The unspecific influence of the siRNA was evaluated using an siRNA to a BCR/ABL chimera mRNA.
Confirmation of RNA interference of the target gene was carried out by determining change in mRNA level by a real-time RT-PCR method as shown below.
Using Oligofectamin (trade name, manufactured by Invitrogen), each kind of cell was transfected with the synthesized siRNA. After 24 hours, whole RNA was extracted from the resulting cells with TRIzol™ reagent (manufactured by Invitrogen), and the resulting product was treated with DNaseI (manufactured by TAKARA BIO INC.). The transfection, the extraction of the whole RNA and the treatment with DNaseI were carried out according to a manufacturer's protocol of the reagent used.
The real-time PCR method was carried out using a Real Time One Step RNA PCR Kit (trade name, manufactured by TAKARA BIO INC.), 100 ng of the resulting RNA as a template and a pair of primers (each 20 pmol), that is, an oligonucleotide having the nucleotide sequence of SEQ ID NO: 13 and an oligonucleotide having the nucleotide sequence of SEQ ID NO: 14. In the real-time RT-PCR method, change in fluorescence based on SYBER Green I (manufactured by TAKARA BIO INC.) was determined with Light Cycler (trade name, manufactured by Roche). The RNA level was standardized by similarly determining GAPDH mRNA with primers set forth in SEQ ID NOs: 15 and 16.
The PCR conditions were as follows: after incubation was carried out at 95° C. for 30 seconds, the reaction was carried out in 40 cycles each consisting of the reaction at 95° C. for 1 second, then at 60° C. for 10 seconds, and at 72° C. for 30 seconds.
The inhibition percentage (%) of the relative mRNA expression level (Flt3 mRNA/GAPDH mRNA) changed by using the synthesized siRNA, as calculated assuming that the relative mRNA expression level (Flt3 mRNA/GAPDH mRNA) of the cells only subjected to each operation of the transfection without adding the synthesized siRNA was 100%, was shown in Table 1.

[1] = test system: HL60 cells (WT-low expressing); assay: cell growth activity, Premix WST1 (Example 2); settings: for Ratio of cell-growth activation defining RNA interference effect in HL60 as 1: HL60, the reference itself; for Relative growth ability (%) compared with the control: HL60, siRNA 10 nM, after 20 hours, n=3 mean, control = transfection without siRNA
Protocol: (§1) The cells placed in a 96-well plate at a density of 2×10^4 cells/well were cultured in an RPMI medium (containing 10% by volume FBS). The cells were transfected with each of the synthesized (10 nM each) siRNAs, and after 20 hours, the cell growth activity was determined with Premix WST1 reagent (trade name, manufactured by TAKARA BIO INC.). Relative growth ability (%) compared with the growth ability of the control (cells subjected to transfection without adding an siRNA) was determined. Each experiment was carried out with n=3, and the mean was determined.

[2] = test system: EoL1 cells (WT-highly expressing); assay: cell growth activity, Premix WST1 (Example 2); settings: for Relative growth ability (%) compared with the control: siRNA 10 nM, after 20 hours, n=3 mean, control = transfection without siRNA
Protocol: as §1

[3] = test system: MV4-11 cells (ITD mutation-highly expressing); assay: cell growth activity, Premix WST1 (Example 2); settings: for Relative growth ability (%) compared with the control: siRNA 10 nM, after 20 hours, n=3 mean, control = transfection without siRNA
Protocol: as §1

[4] = test system: MV4-11 (ITD mutation) cells; assay: growth inhibition by siRNA3 in combination with kinase inhibitor AG1295, WST-1 (Example 4); settings: Homo sapiens, MV4-11, kinase inhibitor alone (control siRNA), 72 hours, n=6 mean, read-out: growth inhibition as compared with the cells transfected with the control siRNA/0 μM AG1295
Protocol: The growth inhibitory activity of treatment with a combination of the composition (synthesized siRNA3) of the present invention and a kinase inhibitor on MV4-11 (ITD mutation) cells was examined. The synthesized siRNA3 used was the same as in item (1) of Example 1 above. As the kinase inhibitor, AG1295 (manufactured by CALBIOCHEM) having high specificity to ITD mutation cells was used.
In the same manner as in item (2) of Example 1 above, MV4-11 cells were cultured at 37° C. for 24 hours in a medium obtained by supplementing 10% by volume fetal bovine serum (FBS) to an RPMI 1640 medium (manufactured by TAKARA BIO INC.) (referred to hereinafter as a culture medium) in the presence of 5% by volume CO2. Then, the MV4-11 cells (1×10^6 cells/ml) suspended in Opti-MEM (trade name, manufactured by Invitrogen) were transferred to a cuvette (manufactured by BIO RAD; gap of 4 mm), and siRNA3 was added to the cuvette so as to give a final concentration of 1.2 μM. Then, the cuvette was set in Gene Pulser Xcell (trade name, manufactured by BIO RAD) and thereafter pulsed with electric field intensity of 650 V/cm for 25 msec. Then, the suspension of the cells in the cuvette was added to, and suspended in, a 4-fold excess volume of the culture medium and dispensed onto a 96-well plate so as to give an amount of 100 μl/well. […]
4 mM AG1295 (dissolved in DMSO) was diluted with the above-mentioned culture medium to prepare AG1295 dilutions at a concentration of 10 μM, 6 μM and 0 μM (0.25% by volume DMSO) and added so as to give an amount of 100 μl/well to the 96-well plate prepared in step (2) above and cultured at 37° C. in the presence of 5% by volume CO2. Seventy-two hours after the culture was initiated, the growth activity of the cells was determined using Premix WST-1 reagent (trade name, manufactured by TAKARA BIO INC.) according to a manufacturer's protocol. Each experiment was carried out with n=6, and the mean was determined. The relative growth ratio (%) to the growth ability of the cells transfected with the control siRNA/0 μM AG1295 was determined. […]

[5] = EoL1 (WT-highly expressing), the reference itself
[6] = MV4-11 (ITD mutation-highly expressing)

Compound | Relative ratio of inhibition defining RNA interference effect in EoL1 as 1 (Flt3 mRNA; [5]) | inhibition percentage (%) of the relative mRNA expression level (Flt3 mRNA/GAPDH mRNA) (Flt3 mRNA; EoL1 (WT-highly expressing)) | inhibition percentage (%) of the relative mRNA expression level (Flt3 mRNA/GAPDH mRNA) (Flt3 mRNA; HL60 (WT-low expressing)) | Relative ratio of inhibition defining RNA interference effect in EoL1 as 1 (Flt3 mRNA; [6]) | inhibition percentage (%) of the relative mRNA expression level (Flt3 mRNA/GAPDH mRNA) (Flt3 mRNA; [6]) | inhibition of Flt3 mRNA expression relative to the cells without using an siRNA (Flt3 mRNA; all cells (MV4-11, EoL1, HL60)) | Ratio of cell-growth activation defining RNA interference effect in HL60 as 1 [1] | Relative growth ability (%) compared with the control [1] | Ratio of cell-growth activation defining RNA interference effect in HL60 as 1 [2] | Relative growth ability (%) compared with the control [2] | Ratio of cell-growth activation defining RNA interference effect in HL60 as 1 [3] | Relative growth ability (%) compared with the control [3] | inhibition of Flt3 mRNA expression (in words) (Flt3 mRNA; siRNA irrelevant to Flt3 mRNA, sequence specificity) | inhibition at 3 µM ([4]; 3.0 μM) | inhibition at 5 µM ([4]; 5.0 μM) | selective inhibition of Flt3 mRNA expression relative to the inhibition ratio in the cells without ITD mutation (WT) (Flt3 mRNA; cells having ITD mutation vs WT cells)
siRNA2: siRNA to TK (kinase) region of Flt3 (target SEQ ID NO: 4); sense SEQ ID NO: 5, antisense SEQ ID NO: 6 (sense CAGGAGUCUCAAUCCAGGUTT; antisense ACCUGGAUUGAGACUCCUGTT; chemistry not given here) | (1) | 54% | 46% | (1) | 54% | around 50% | (1) | 115% | (0.70) | 79.7% | (0.36) | 41.4% | – | – | – | –
siRNA4: siRNA to BCR/ABL chimera mRNA (target SEQ ID NO: 10); sense SEQ ID NO: 11, antisense SEQ ID NO: 12; unspecific control (sense GCAGAGUUCAAAAGCCCUUTT; antisense AAGGGCUUUUGAACUCUGCTT; chemistry not given here) [reference compound] | – | 8% | 7% | – | 5% | – | – | – | – | – | – | – | did not occur | – | – | –
Cc1cc2ncc(-c3ccccc3)nc2cc1C [AG1295] | – | – | – | – | – | – | – | – | – | – | – | – | – | 59.8% | 84.3% | –
siRNA1: siRNA to ATP-binding site region of Flt3 (target SEQ ID NO: 1); sense SEQ ID NO: 2, antisense SEQ ID NO: 3 (sense GGUACUAGGAUCAGGUGCUTT; antisense AGCACCUGAUCCUAGUACCTT; chemistry not given here) | (1)* | 41% | 31% | (1.6) | 65% | – | (1)* | 116% | (0.60) | 68.5% | (0.49) | 56.4% | – | – | – | ≥ 1.6 fold
